Data: patent US6900220B2, “Quinazolone derivatives as alpha 1A/B adrenergic receptor antagonists” (Syntex (U.S.A.) LLC, priority 2001, dated 2005)
Where a name gives a salt, the structure may show the parent alone.

Assays:
anesthetized dog = assay: Dog in vivo blood and intraurethral pressure assay; details: anesthetized mongrel dogs, i.v. bolus, increasing doses
Protocol: The following describes an in vivo assay for measuring the relative effect of test compounds on hypogastric nerve stimulation-induced increases in intraurethral pressure and phenylephrine-induced increases in diastolic blood pressure in anesthetized dog.
Mongrel dogs (10 to 20 kg) were fasted for 12 to 18 hours and anesthetized with […] (35 mg/kg, i.v.). An endotracheal tube was inserted and thereafter the lungs were mechanically ventilated with room air. The right femoral vein was isolated and cannulated with two polyethylene cannulae, one for the administration of a continuous infusion of phenobarbital sodium (5 to 10 mg/kg/hr) and the other for bolus administration of test substances. The right femoral artery was isolated and cannulated to the abdominal aorta with a fluid filled polyethylene cannula connected to an external pressure transducer for monitoring diastolic aortic pressure (DAP). The bladder was exposed via a ventral midline abdominal incision and emptied of urine through a 22 gauge needle. The bladder was cannulated through a stab incision with a water filled balloon catheter connected to an external pressure transducer for monitoring prostatic intraurethral pressure (IUP). The right hypogastric nerve (HGN) was carefully isolated and attached to a Dastre's electrode for nerve stimulation. […]

| Structure (SMILES) | melting point [°C] | inhibition of hypogastric nerve (HGN) stimulation-induced increases in intraurethral pressure (IUP) relative to phenylephrine-induced increases in diastolic aortic pressure (DAP) (anesthetized dog) |
| --- | --- | --- |
| COc1cc2nc(N3CCc4c(cccc4S(=O)(=O)N4CCN(C)CC4)C3)[nH]c(=O)c2cc1OC [Compound 401, 6,7-dimethoxy-2-[5-(4-methyl-piperazine-1-sulfonyl)-3,4-dihydro-1H-isoquinolin-2-yl]-3H-quinazolin-4-one] | 230 to 237 |  |
| COc1cc2c(cc1OC)CN(c1nc(=O)c3cc(OC)c(OC)cc3[nH]1)CC2 [Compound 105, 2-(6,7-dimethoxy-3,4-dihydro-1H-isoquinolin-2-yl)-6,7-dimethoxy-1H-quinazolin-4-one] | 188.6 to 190.4 |  |
| COc1cc2nc(N3CCn4c(cnc4NC4CCCCC4)C3)[nH]c(=O)c2cc1OC [Compound 301, 2-(3-cyclohexylamino-5,6-dihydro-8H-imidazo[1,5-a]pyrazin-7-yl)-6,7-dimethoxy-1H-quinazolin-4-one] | 248 to 249.4 |  |
| COc1cc2nc(N3CCc4c(cccc4-c4cnccc4N)C3)[nH]c(=O)c2cc1OC (as salt: hydrochloric acid salt) [Compound 902, 2-[5-(4-amino-pyridin-3-yl)-3,4-dihydro-1H-isoquinolin-2-yl]-6,7-dimethoxy-3H-quinazol-4-one] | > 300 |  |
| COc1cc2nc(N3CCc4c(CN5CCOCC5)cccc4C3)[nH]c(=O)c2cc1OC (as salt: hydrochloric acid salt) [Compound 701, 6,7-Dimethoxy-2-(5-morpholin-4-ylmethyl-3,4-dihydro-1H-isoquinolin-2-yl)-3H-quinazolin-4-one] | 227.9 to 229.6 |  |
| COc1cc2nc(N3CCc4c(ncnc4N4CCOCC4)C3)[nH]c(=O)c2cc1OC [Compound 201, 6,7-dimethoxy-2-(4-morpholin-4-yl-5,8-dihydro-6H-pyrido[3,4-d]pyrimidin-7-yl)-3H-quinazolin-4-one] | 287.7 to 290.4 |  |
| COc1cc2[nH]c(N3CCn4c(-c5ccccc5)cnc4C3)nc(=O)c2cc1OC [Compound 904, 6,7-dimethoxy-2-(3-phenyl-5,6-dihydro-8H-imidazo[1,2-α]pyrazin-7-yl)-1H-quinazolin-4-one] | > 300 |  |
| COc1cc2nc(N3CCc4c(cccc4C(=N)N4CCOCC4)C3)[nH]c(=O)c2cc1OC (as salt: hydrochloric acid salt) [Compound 901, 2-[5-(imino-morpholin-4-yl-methyl)-3,4-dihydro-1H-isoquinolin-2-yl]-6,7-dimethoxy-3H-quinazolin-4-one] | 249 to 251 |  |
| COc1cc2nc(N3CCN(C(=O)c4ccco4)CC3)nc(N)c2cc1OC [prazosin] |  | inhibited increases in IUP and DAP in similar fashion |
